Several values for one entry are separate records, joined by “and”; a condition that tells them apart may be missing. Equal entries are not always repeated. Where two headings read alike, the source gives them in different places.
What was measured:
[1] = Total QST levels in plasma and flank tumors (LC-MS/MS); type: in vivo; settings: athymic nude, mouse, 10 mg/kg
Experimental: QST concentrations in specimens were measured using reverse-phase LC on the AB SCIEX QTRAP6500+ LC-MS/MS system by operating electrospray in the positive ion mode. For liquid chromatographic separation, gradient elution was performed using a Phenomenex Kinetex F5 100 Å column (100 × 2.1 mm, 2.6 μm). The initial composition of the mobile phase was 70% phase A (0.1% formic acid in water) and 30% phase B (0.1% formic acid in 1:1 acetonitrile/methanol) with a 0.35 mL/min flow rate. Gradient elution was achieved as follows: mobile phase (B) was maintained at 30% from 0 to 0.3 minutes, increased to 95% from 0.3 to 0.8 minutes, maintained at 95% from 0.8 to 2.5 minutes, and decreased to 30% from 2.5 to 2.8 minutes. The total run time was 3.5 minutes. The internal standard used in this study was D8-infigratinib. The retention times for QST and D8-infigratinib were 1.6 and 1.8 minutes, respectively. Mass-to-charge ratio transitions were as follows: 395.20 → 144.00 (QST) and 568.08 → 321.00 (D8-infigratinib). LC-MS/MS analysis was performed using an Analyst 1.7 Chromatographic Data System. See Supplemental Methods for detailed PK experiments. […]
treated with 2 Gy of ionizing radiation on MWF for a total 6 Gy (3 doses). Ionizing radiation was administered with the RS2000 series biological research irradiator (Rad Source Technologies).
Treatment of Flank-Implanted Mice with QST and/or Radiation
Implanted flank tumors were allowed to grow until the tumor size reached 100 mm3 volume. Mice were randomized into groups before treatment and underwent treatment on MWF for the entire duration of the experiment until the tumor volumes exceeded 2000 mm3. Treatment groups included vehicle (50% PEG-300), QST alone (10 mg/kg), flank IR treatment with vehicle (2 Gy), and flank IR treatment (2 Gy) with QST (10 mg/kg). For mice receiving IR treatment with or without QST, mice were treated with 2 Gy on MWF for a total 6 Gy during the first week of treatment. QST was administered to mice through intraperitoneal injections 2 hours before flank tumor radiation treatment. Upon completion of the radiation regimen, IR-treated mice subsequently received QST or vehicle alone for the rest of the experiment. Tumor growth and treatment response were monitored by manually measuring the tumor area twice per week starting at 13 days after implantation. Upon reaching the tumor volume threshold (2000 mm3), mice were sacrificed, and plasma and tissue samples were harvested for PD and PK analyses 2 hours after treatment with a final dose of QST (10 mg/kg). […]
Calibration Standards and Quality Control Samples
Stock solutions of standard (1 mM QST) and IS (250 µM D8-infigratinib) were prepared in acetonitrile. Working solutions for calibration curve standards and quality controls (QCs) were prepared by dilutions with a 40% methanol mixture aqueous solution. The IS precipitation solution (10 nM) was prepared from the IS stock solutions by dilution with methanol. Calibration standards and batch qualifying QCs were freshly spiked for every batch. For sample analysis in human and mouse matrices, calibration standards were prepared in bulk by spiking appropriate amounts of working solutions into blank human plasma, used as a surrogate matrix due to the instability of QST in mouse plasma. For sample analysis in neural stem cell media and cell lysate, calibration standards were prepared in bulk by spiking appropriate amounts of working solutions into neural stem cell media. QC samples were prepared in bulk by spiking appropriate amounts of working solutions into blank mouse plasma or cell media. Preparation of calibration standards and QC samples was performed at 4 °C. Final concentrations range of the calibration standards were 1–1000 nM in human plasma or neural stem cell media. Three QC levels (low, medium, and high) were used during all sample analyses. The concentrations of QC samples in various matrices were 3 nM (low QC), 22 nM (medium QC), and 800 nM (high QC). All stock […]

[2] = Body weight / tolerability in non-tumor-bearing mice; type: in vivo, athymic nude mice; settings: for weight of normal nude mice during QST treatment: QST 10 mg/kg, individual mice
GB126 cells = assay: Ki67 / cleaved caspase-3 immunofluorescence; type: cell-based, human; settings: QST at IC50, 72 hours, replicates
Experimental: (§1) Cells were grown as adherent cultures on laminin -coated glass coverslips (Thermo Fisher Scientific) in GSC media. Twenty-four hours after plating, the cells were treated with QST or DMSO diluted in GSC media. Seventy-two hours after treatment, cells were fixed with 4% paraformaldehyde for 13 minutes at room temperature. Cells were washed with phosphate-buffered saline (PBS) and subsequently permeabilized and blocked with 5% normal goat serum (Sigma Aldrich) and 0.2% Triton X -100 in PBS (blocking solution) for 30 minutes at room temperature. The cells were incubated with primary antibodies overnight a t 4 °C in blocking solution. Primary antibodies used in this study included rabbit anti -Ki67 (1:1000; Abcam, 15580), rabbit anti-Cleaved Caspase 3 (1:400; Cell Signaling Technologies, 9661), rabbit anti - gamma H2AX (phospho Ser139; 1:1000, Abcam, ab11174), and mouse anti-human Nestin (1:500; Novus Biologicals, 10C2). The following day, the cells were washed with PBS 3 times, incubated with fluorophore-conjugated secondary antibodies at 1: 1000 dilutions (Alexa Fluor […]
(§2) for 1 hour at room temperature, and washed in PBS 3 more times. Cells were mounted onto […]
(§3) SuperFrost Plus microscope slides using Fluoroshield Mounting Medium containing DAPI (Abcam). Images were acquired using a confocal microscope (Leica Microsystems; TCS SP5) operated with Leica Application Suite software. The fraction of Ki67- and Cleaved Caspase 3– positive cells were counted from 5 independent images from each condition. The mean and standard deviation were calculated from 3 biological replicates for all control and QST-treated […]
(§4) Analysis of immunostaining of cultured GSCs was performed on confocal stacks (with a step size of 0.5–1.5 μm) acquired with either a 20× water-immersion objective or a 63× oil-immersion objective on a laser-scanning confocal microscope (Leica Microsystems; TCS SP5) operated with Leica Application Suite software. All images were processed using ImageJ software (National Institutes of Health). […]
(§5) mL of ice cold 70% ethanol, added dropwise while vortexing. Cells were fixed on ice for 30 minutes and washed twice with 1× PBS. Cells were then resuspended in 500 μL of propidium iodide/RNAse staining buffer (BD Biosciences, 550825) for 15 minutes at room temperature before analysis. Data from all the samples were obtained using a Fortessa flow cytometer (BD […]

BT145 cells = assay: Ki67 / cleaved caspase-3 immunofluorescence; type: cell-based, human; settings: QST at IC50, 72 hours, replicates
Experimental: as §1, §2, §3, §4, §5

HDAC1 = settings: cited from earlier work

Cn1cc(CNCC2CCN(c3ncc(C(=O)NO)cn3)CC2)c2ccccc21 [QST, quisinostat]
concentration at 2 h ([1]; flank tumor, intraperitoneal, Combination (QST+IR) cohort, read-out: [QST] total, flank tumor, Mean): 0.501 µM
concentration at 2 h ([1]; flank tumor, intraperitoneal, QST monotherapy cohort, read-out: [QST] total, flank tumor, Mean): 0.479 µM
concentration at 2 h ([1]; flank tumor, ip, QST- and combination-treated mice, 10 mg/kg IP, 2 hours after final dose, read-out: mean total QST concentration in flank tumors): ~0.433 µM
concentration at 2 h ([1]; plasma, intraperitoneal, Combination (QST+IR) cohort, read-out: [QST] total, plasma, Mean): 0.276 µM
concentration at 2 h ([1]; plasma, intraperitoneal, QST monotherapy cohort, read-out: [QST] total, plasma, Mean): 0.25 µM
concentration at 2 h ([1]; plasma, ip, QST- and combination-treated mice, 10 mg/kg IP, 2 hours after final dose, read-out: mean total QST concentration in plasma): ~0.3 µM
tolerability (weight loss) ([2]; 10 mg/kg IP MWF for 2 weeks, non-tumor-bearing athymic nude mice): well tolerated
weight of normal nude mice during QST treatment ([2]; treatment day 1): 28.1 g (2×) and 28.4 g and 26.7 g and 26.2 g and 20.2 g
weight of normal nude mice during QST treatment ([2]; treatment day 2): 27.9 g and 27.4 g and 26 g and 26.7 g and 20.4 g and 27.5 g
weight of normal nude mice during QST treatment ([2]; treatment day 3): 27.4 g and 27.9 g and 25.6 g and 27.2 g and 20.3 g and 27.8 g
weight of normal nude mice during QST treatment ([2]; treatment day 4): 28.1 g and 27.7 g and 25.7 g and 27 g (2×) and 20.8 g
weight of normal nude mice during QST treatment ([2]; treatment day 5): 27.5 g and 27.4 g and 26.5 g and 27.1 g (2×) and 20.3 g
weight of normal nude mice during QST treatment ([2]; treatment day 6): 27.4 g and 27 g and 26.9 g and 27.2 g and 20.2 g and 27.1 g
% CC-3 + / DAPI (GB126 cells): 18.5009% and 22.4947% and 8.724%
% Ki67+ / DAPI (GB126 cells): 8.013% and 11.9177% and 10.7184%
% CC-3 + / DAPI (BT145 cells): 11.8845% and 6.461% and 13.5339%
% Ki67+ / DAPI (BT145 cells): 26.1653% and 29.1973% and 26.725%

From paper PMC10721329, “Quisinostat is a brain-penetrant radiosensitizer in glioblastoma” (JCI Insight, 2023)
